Reference: the NIST ThermoML archive (doi:10.1007/s10765-019-2484-6)

Assay: xn = mol fraction of the nth substance listed
Conditions: Gas, Loschmidt cell combined with holographic interferometry

C [methane] + CCC
Conditions | binary diffusion coefficient [m2/s]
293.09 K, 500 kPa, x2 = 0.659 | 2.12e-06
293.12 K, 500 kPa, x2 = 0.3331 | 2.19e-06
293.12 K, 500 kPa, x2 = 0.492 | 2.07e-06
293.13 K, 500 kPa, x2 = 0.833 | 1.97e-06
293.16 K, 500 kPa, x2 = 0.5 | 2.19e-06
293.18 K, 500 kPa, x2 = 0.159 | 2.36e-06
293.19 K, 50 kPa, x2 = 0.5 | 2.36e-06
293.21 K, 200 kPa, x2 = 0.5 | 5.78e-06
293.29 K, 100 kPa, x2 = 0.5 | 1.18e-05
293.31 K, 100 kPa, x2 = 0.4973 | 1.21e-05
293.31 K, 100 kPa, x2 = 0.6665 | 1.18e-05
293.31 K, 200 kPa, x2 = 0.6665 | 5.81e-06
293.32 K, 100 kPa, x2 = 0.159 | 1.24e-05
293.32 K, 100 kPa, x2 = 0.3335 | 1.18e-05
293.33 K, 100 kPa, x2 = 0.833 | 1.18e-05
293.33 K, 200 kPa, x2 = 0.159 | 6.16e-06
293.33 K, 200 kPa, x2 = 0.3335 | 5.7e-06
293.33 K, 200 kPa, x2 = 0.833 | 5.77e-06
293.34 K, 200 kPa, x2 = 0.498 | 5.81e-06
313.28 K, 500 kPa, x2 = 0.4995 | 2.71e-06
313.52 K, 500 kPa, x2 = 0.832 | 2.73e-06
313.54 K, 500 kPa, x2 = 0.1665 | 2.8e-06
313.55 K, 100 kPa, x2 = 0.8295 | 1.37e-05
313.55 K, 500 kPa, x2 = 0.332 | 2.79e-06
313.55 K, 500 kPa, x2 = 0.5 | 2.72e-06
313.56 K, 100 kPa, x2 = 0.3295 | 1.4e-05
313.56 K, 100 kPa, x2 = 0.4995 | 1.31e-05
313.57 K, 200 kPa, x2 = 0.4995 | 6.73e-06
313.57 K, 200 kPa, x2 = 0.6665 | 6.92e-06
313.58 K, 100 kPa, x2 = 0.159 | 1.52e-05
313.58 K, 200 kPa, x2 = 0.5 | 6.91e-06
313.59 K, 100 kPa, x2 = 0.5 | 1.38e-05
313.59 K, 200 kPa, x2 = 0.3295 | 6.98e-06
313.59 K, 500 kPa, x2 = 0.6665 | 2.76e-06
313.6 K, 100 kPa, x2 = 0.6665 | 1.4e-05
313.6 K, 200 kPa, x2 = 0.159 | 7.39e-06
313.61 K, 200 kPa, x2 = 0.8295 | 6.76e-06

CCC [propane] + O=C=O
Conditions | binary diffusion coefficient [m2/s]
293.24 K, 50 kPa, x1 = 0.5 | 1.89e-05
293.25 K, 100 kPa, x1 = 0.1665 | 8.54e-06
293.25 K, 200 kPa, x1 = 0.1665 | 4.14e-06
293.27 K, 100 kPa, x1 = 0.333 | 8.31e-06
293.27 K, 100 kPa, x1 = 0.833 | 8.29e-06
293.27 K, 500 kPa, x1 = 0.1665 | 1.59e-06
293.28 K, 200 kPa, x1 = 0.333 | 4.12e-06
293.28 K, 200 kPa, x1 = 0.833 | 4.06e-06
293.3 K, 500 kPa, x1 = 0.333 | 1.71e-06
293.31 K, 200 kPa, x1 = 0.4995 | 4.12e-06
293.32 K, 100 kPa, x1 = 0.4995 | 8.23e-06
293.32 K, 500 kPa, x1 = 0.833 | 1.51e-06
293.33 K, 200 kPa, x1 = 0.6665 | 4.06e-06
293.33 K, 500 kPa, x1 = 0.4995 | 1.49e-06
293.36 K, 100 kPa, x1 = 0.6665 | 8.25e-06
293.37 K, 200 kPa, x1 = 0.5 | 4.06e-06
293.39 K, 500 kPa, x1 = 0.5 | 1.54e-06
293.41 K, 500 kPa, x1 = 0.6665 | 1.52e-06
293.47 K, 100 kPa, x1 = 0.5 | 8.23e-06
313.21 K, 200 kPa, x1 = 0.333 | 4.88e-06
313.21 K, 500 kPa, x1 = 0.5 | 1.77e-06
313.22 K, 200 kPa, x1 = 0.5 | 4.77e-06
313.23 K, 100 kPa, x1 = 0.6665 | 9.67e-06
313.23 K, 200 kPa, x1 = 0.833 | 4.77e-06
313.25 K, 100 kPa, x1 = 0.833 | 9.53e-06
313.26 K, 100 kPa, x1 = 0.333 | 9.71e-06
313.26 K, 200 kPa, x1 = 0.6665 | 4.79e-06
313.27 K, 500 kPa, x1 = 0.333 | 1.94e-06
313.27 K, 500 kPa, x1 = 0.6665 | 1.85e-06
313.27 K, 500 kPa, x1 = 0.833 | 1.86e-06
313.28 K, 100 kPa, x1 = 0.1665 | 9.79e-06
313.28 K, 200 kPa, x1 = 0.1665 | 4.8e-06
313.29 K, 200 kPa, x1 = 0.4995 | 4.8e-06
313.31 K, 500 kPa, x1 = 0.1665 | 1.95e-06
313.32 K, 100 kPa, x1 = 0.4995 | 9.71e-06
